US12365696B2, “Small-molecule focal adhesion kinase (FAK) inhibitors” (DANA-FARBER CANCER INSTITUTE, INC., priority 2019, dated 2025)
pIC50: −log10 of the molar value. Like-named read-outs stand apart in the source and are kept apart here.

Tests used:
MDA-MB-231 cells = assay: 2D-adherent monolayer cell viability (Cell Titer-Glo), 120 hrs; assay type: cell-based; settings: Homo sapiens
Method: For 2D-adherent monolayer experiments, MDA-MB-231 cells were plated in 384-well format and allowed to adhere overnight. Cells were treated with indicated molecules from compound stock plates using a JANUS® Workstation pin tool for 120 hrs. To measure cell viability, Cell Titer-Glo® was added to wells for 15 minutes at room temperature and luminescence was measured on an EnVision™ 2104 Multilabel Plate Reader.
Inventive compound treatment (0.00063-20 μM) led to antiproliferative effects in MDA-MB-231 cells cultured as 2D-adherent monolayers or as ultra-low adherent 3D-spheroid suspensions (Table 5).

[1] = target: ABL1(Y253F)-phosphorylated (Homo sapiens (Human), UniProt P00519, Y253F); assay: KINOMEscan; assay type: binding; settings: 10000 nM, read-out: Percent Control
AMPK-alpha2 = AMPK-alpha2 (Homo sapiens (Human), UniProt P54646); assay: KINOMEscan; assay type: binding; settings: AMPK-alpha2, 10000 nM; read-out: Percent Control
BRK = BRK (Homo sapiens (Human), UniProt Q13882); assay: KINOMEscan; assay type: binding; settings: 10000 nM, read-out: Percent Control
BRSK1 = BRSK1 (Homo sapiens (Human), UniProt Q8TDC3); assay: KINOMEscan; assay type: binding; settings: BRSK1, 10000 nM; read-out: Percent Control
BRSK2 = BRSK2 (Homo sapiens (Human), UniProt Q8IWQ3); assay: KINOMEscan; assay type: binding; settings: BRSK2, 10000 nM; read-out: Percent Control
EGFR(L747-T751del, Sins) = EGFR(L747-T751del, Sins) (Homo sapiens (Human), UniProt P00533, DEL747-751/INS746S); assay: KINOMEscan; assay type: binding; settings: 10000 nM, read-out: Percent Control
EPHA6 = EPHA6 (Homo sapiens (Human), UniProt Q9UF33); assay: KINOMEscan; assay type: binding; settings: EPHA6, 10000 nM; read-out: Percent Control
FLT3(R834Q) = FLT3(R834Q) (Homo sapiens (Human), UniProt P36888, R834Q); assay: KINOMEscan; assay type: binding; settings: 10000 nM, read-out: Percent Control
GRK3 = GRK3 (Homo sapiens (Human), UniProt P35626); assay: KINOMEscan; assay type: binding; settings: GRK3, 10000 nM; read-out: Percent Control
IKK-beta = IKK-beta (Homo sapiens (Human), UniProt O14920); assay: KINOMEscan; assay type: binding; settings: 10000 nM, read-out: Percent Control
[2] = target: JAK2(JH1domain-catalytic) (Homo sapiens (Human), UniProt O60674); assay: KINOMEscan; assay type: binding; settings: 10000 nM, read-out: Percent Control
JNK1 = JNK1 (Homo sapiens (Human), UniProt P45983); assay: KINOMEscan; assay type: binding; settings: JNK1, 10000 nM; read-out: Percent Control
JNK2 = JNK2 (Homo sapiens (Human), UniProt P45984); assay: KINOMEscan; assay type: binding; settings: JNK2, 10000 nM; read-out: Percent Control
LOK = LOK (Homo sapiens (Human), UniProt O94804); assay: KINOMEscan; assay type: binding; settings: 10000 nM, read-out: Percent Control
MEK5 = MEK5 (Homo sapiens (Human), UniProt Q13163); assay: KINOMEscan; assay type: binding; settings: MEK5, 10000 nM; read-out: Percent Control
MKK7 = MKK7 (Homo sapiens (Human), UniProt O14733); assay: KINOMEscan; assay type: binding; settings: MKK7, 10000 nM; read-out: Percent Control
MST1R = MST1R (Homo sapiens (Human), UniProt Q04912); assay: KINOMEscan; assay type: binding; settings: 10000 nM, read-out: Percent Control
MYLK = MYLK (Homo sapiens (Human), UniProt Q15746); assay: KINOMEscan; assay type: binding; settings: 10000 nM, read-out: Percent Control
NEK11 = NEK11 (Homo sapiens (Human), UniProt Q8NG66); assay: KINOMEscan; assay type: binding; settings: NEK11, 10000 nM; read-out: Percent Control
PAK3 = PAK3 (Homo sapiens (Human), UniProt O75914); assay: KINOMEscan; assay type: binding; settings: PAK3, 10000 nM; read-out: Percent Control
PIK3CA(E545A) = PIK3CA(E545A) (Homo sapiens (Human), UniProt P42336, E545A); assay: KINOMEscan; assay type: binding; settings: 10000 nM, read-out: Percent Control
PIK3CA(E545K) = PIK3CA(E545K) (Homo sapiens (Human), UniProt P42336, E545K); assay: KINOMEscan; assay type: binding; settings: 10000 nM, read-out: Percent Control
PIK3CA(H1047L) = PIK3CA(H1047L) (Homo sapiens (Human), UniProt P42336, H1047L); assay: KINOMEscan; assay type: binding; settings: 10000 nM, read-out: Percent Control
PKNB(M. tuberculosis) = PKNB(M. tuberculosis) (Mycobacterium tuberculosis (strain ATCC 25618 / H37Rv), UniProt P9WI81); assay: KINOMEscan; assay type: binding; settings: read-out: Percent Control
PRKCE = PRKCE (Homo sapiens (Human), UniProt Q02156); assay: KINOMEscan; assay type: binding; settings: 10000 nM, read-out: Percent Control
RET(V804L) = RET(V804L) (Homo sapiens (Human), UniProt P07949, V804L); assay: KINOMEscan; assay type: binding; settings: 10000 nM, read-out: Percent Control
ROCK1 = ROCK1 (Homo sapiens (Human), UniProt Q13464); assay: KINOMEscan; assay type: binding; settings: ROCK1, 10000 nM; read-out: Percent Control
[3] = target: RSK4(Kin.Dom.1-N-terminal) (Homo sapiens (Human), UniProt Q9UK32); assay: KINOMEscan; assay type: binding; settings: 10000 nM, read-out: Percent Control
TLK2 = TLK2 (Homo sapiens (Human), UniProt Q86UE8); assay: KINOMEscan; assay type: binding; settings: TLK2, 10000 nM; read-out: Percent Control
TNK1 = TNK1 (Homo sapiens (Human), UniProt Q13470); assay: KINOMEscan; assay type: binding; settings: TNK1, 10000 nM; read-out: Percent Control
TXK = TXK (Homo sapiens (Human), UniProt P42681); assay: KINOMEscan; assay type: binding; settings: 10000 nM, read-out: Percent Control
TXK, sequence (P42681 whole entry): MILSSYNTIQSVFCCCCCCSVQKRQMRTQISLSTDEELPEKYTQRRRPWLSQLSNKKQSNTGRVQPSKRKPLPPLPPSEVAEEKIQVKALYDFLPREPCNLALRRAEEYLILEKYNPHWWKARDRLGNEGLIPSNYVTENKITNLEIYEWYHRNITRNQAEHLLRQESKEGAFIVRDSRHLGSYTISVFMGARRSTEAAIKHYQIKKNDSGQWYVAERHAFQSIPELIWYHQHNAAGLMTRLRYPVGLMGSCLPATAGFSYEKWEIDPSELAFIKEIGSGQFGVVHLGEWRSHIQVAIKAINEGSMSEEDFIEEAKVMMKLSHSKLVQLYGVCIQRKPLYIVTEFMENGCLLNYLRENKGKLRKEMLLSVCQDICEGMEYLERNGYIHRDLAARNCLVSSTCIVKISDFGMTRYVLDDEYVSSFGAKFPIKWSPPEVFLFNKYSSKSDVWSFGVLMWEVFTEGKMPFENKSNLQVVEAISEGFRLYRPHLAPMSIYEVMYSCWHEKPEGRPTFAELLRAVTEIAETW

TNK1, sequence (Q13470 whole entry): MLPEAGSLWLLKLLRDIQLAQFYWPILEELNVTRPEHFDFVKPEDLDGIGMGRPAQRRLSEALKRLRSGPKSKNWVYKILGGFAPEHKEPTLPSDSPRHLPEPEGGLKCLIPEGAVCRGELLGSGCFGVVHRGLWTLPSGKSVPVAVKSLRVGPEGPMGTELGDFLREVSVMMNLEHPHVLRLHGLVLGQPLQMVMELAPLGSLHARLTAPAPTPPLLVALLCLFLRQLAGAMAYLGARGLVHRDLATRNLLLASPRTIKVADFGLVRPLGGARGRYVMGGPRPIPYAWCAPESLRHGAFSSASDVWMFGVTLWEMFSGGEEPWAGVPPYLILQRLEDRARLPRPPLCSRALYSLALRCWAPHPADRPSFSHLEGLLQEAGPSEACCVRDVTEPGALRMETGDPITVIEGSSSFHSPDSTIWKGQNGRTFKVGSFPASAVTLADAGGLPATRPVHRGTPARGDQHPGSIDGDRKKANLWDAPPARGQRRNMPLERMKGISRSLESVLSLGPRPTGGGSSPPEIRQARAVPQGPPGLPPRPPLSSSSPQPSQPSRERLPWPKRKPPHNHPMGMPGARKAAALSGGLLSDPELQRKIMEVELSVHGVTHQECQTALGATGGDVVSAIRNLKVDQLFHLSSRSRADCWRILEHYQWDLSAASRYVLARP
PAK3, sequence (O75914 whole entry): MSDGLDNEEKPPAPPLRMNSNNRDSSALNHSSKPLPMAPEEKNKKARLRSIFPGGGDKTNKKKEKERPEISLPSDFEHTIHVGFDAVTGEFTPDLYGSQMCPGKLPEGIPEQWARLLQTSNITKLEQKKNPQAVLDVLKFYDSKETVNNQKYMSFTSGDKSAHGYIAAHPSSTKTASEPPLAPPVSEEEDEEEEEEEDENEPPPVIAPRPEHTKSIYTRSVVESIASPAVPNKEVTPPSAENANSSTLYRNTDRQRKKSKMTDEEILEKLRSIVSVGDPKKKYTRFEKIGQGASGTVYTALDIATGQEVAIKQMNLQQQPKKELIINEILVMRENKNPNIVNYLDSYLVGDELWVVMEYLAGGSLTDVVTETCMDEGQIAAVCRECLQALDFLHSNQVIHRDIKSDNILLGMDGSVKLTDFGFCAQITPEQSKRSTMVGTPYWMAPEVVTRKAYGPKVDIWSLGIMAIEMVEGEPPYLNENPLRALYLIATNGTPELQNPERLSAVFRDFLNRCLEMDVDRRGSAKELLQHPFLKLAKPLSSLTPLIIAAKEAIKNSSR
MEK5, sequence (Q13163 whole entry): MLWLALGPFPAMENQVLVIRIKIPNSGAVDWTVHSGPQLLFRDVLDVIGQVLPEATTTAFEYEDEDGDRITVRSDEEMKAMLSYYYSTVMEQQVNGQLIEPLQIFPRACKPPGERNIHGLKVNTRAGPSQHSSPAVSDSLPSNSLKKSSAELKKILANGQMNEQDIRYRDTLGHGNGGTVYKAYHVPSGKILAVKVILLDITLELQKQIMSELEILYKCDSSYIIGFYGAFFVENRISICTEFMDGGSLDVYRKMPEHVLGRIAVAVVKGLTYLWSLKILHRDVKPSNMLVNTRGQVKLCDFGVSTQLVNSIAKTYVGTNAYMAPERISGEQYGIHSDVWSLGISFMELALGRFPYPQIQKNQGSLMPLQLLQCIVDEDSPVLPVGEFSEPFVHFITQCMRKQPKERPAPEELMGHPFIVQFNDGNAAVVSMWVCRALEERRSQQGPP
JNK2, sequence (P45984 whole entry): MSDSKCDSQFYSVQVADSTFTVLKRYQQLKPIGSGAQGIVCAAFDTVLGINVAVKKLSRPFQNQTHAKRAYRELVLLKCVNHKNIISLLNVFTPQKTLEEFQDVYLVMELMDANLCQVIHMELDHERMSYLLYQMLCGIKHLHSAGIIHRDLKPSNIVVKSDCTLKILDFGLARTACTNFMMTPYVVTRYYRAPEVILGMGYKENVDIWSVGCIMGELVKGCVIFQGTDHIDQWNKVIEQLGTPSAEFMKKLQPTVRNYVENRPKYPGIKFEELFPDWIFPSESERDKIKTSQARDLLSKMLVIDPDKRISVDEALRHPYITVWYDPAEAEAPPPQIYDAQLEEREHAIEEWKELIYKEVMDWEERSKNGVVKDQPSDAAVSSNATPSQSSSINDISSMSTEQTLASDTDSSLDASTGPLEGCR
EGFR(L747-T751del, Sins), sequence (P00533 other isoform, or with tags, fused parts or gaps, stated change not applied): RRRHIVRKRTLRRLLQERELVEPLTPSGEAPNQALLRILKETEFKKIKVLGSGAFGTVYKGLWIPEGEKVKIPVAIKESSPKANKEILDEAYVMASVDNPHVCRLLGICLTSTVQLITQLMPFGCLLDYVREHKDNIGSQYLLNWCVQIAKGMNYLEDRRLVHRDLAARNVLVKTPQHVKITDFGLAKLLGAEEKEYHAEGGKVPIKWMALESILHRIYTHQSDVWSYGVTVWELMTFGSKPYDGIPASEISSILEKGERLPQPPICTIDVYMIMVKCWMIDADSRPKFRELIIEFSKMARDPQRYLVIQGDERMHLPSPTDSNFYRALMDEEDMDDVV
RSK4(Kin.Dom.1-N-terminal), sequence (Q9UK32 73-330): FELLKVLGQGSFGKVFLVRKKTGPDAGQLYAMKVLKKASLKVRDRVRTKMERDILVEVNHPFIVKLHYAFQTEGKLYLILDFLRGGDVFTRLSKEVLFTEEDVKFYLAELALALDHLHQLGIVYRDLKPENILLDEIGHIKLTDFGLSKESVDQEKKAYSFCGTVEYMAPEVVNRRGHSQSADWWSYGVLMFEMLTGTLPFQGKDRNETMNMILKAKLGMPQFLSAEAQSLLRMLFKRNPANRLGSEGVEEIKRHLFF
GRK3, sequence (P35626 whole entry): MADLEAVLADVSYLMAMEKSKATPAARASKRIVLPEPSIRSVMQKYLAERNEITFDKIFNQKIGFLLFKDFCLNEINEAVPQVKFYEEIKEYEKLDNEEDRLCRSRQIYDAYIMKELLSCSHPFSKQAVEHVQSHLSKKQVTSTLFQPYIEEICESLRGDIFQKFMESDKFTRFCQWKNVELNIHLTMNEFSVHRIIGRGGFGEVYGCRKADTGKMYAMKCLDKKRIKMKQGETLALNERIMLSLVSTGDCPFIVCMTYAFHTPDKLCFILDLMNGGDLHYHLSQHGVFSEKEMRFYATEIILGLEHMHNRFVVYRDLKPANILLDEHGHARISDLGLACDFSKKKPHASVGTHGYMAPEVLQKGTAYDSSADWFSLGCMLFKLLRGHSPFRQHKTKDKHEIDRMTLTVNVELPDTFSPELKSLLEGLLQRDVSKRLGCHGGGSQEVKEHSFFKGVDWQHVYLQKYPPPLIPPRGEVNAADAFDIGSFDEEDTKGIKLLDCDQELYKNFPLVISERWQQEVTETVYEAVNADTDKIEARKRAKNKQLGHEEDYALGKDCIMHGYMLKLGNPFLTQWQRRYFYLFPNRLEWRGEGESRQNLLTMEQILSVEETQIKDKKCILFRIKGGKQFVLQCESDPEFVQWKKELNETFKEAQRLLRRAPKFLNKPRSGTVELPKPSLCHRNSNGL
MKK7, sequence (O14733 whole entry): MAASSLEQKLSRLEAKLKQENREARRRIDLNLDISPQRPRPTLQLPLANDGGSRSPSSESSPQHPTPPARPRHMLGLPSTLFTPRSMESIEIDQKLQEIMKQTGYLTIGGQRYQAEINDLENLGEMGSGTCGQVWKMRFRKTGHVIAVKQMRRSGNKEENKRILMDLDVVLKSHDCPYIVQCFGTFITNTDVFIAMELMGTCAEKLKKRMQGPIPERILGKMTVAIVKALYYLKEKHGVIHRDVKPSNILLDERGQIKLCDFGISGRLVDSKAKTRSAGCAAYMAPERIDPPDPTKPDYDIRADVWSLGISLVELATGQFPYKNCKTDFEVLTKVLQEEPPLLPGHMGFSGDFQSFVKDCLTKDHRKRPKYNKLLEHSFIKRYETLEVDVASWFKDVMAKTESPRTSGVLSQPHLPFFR
NEK11, sequence (Q8NG66 whole entry): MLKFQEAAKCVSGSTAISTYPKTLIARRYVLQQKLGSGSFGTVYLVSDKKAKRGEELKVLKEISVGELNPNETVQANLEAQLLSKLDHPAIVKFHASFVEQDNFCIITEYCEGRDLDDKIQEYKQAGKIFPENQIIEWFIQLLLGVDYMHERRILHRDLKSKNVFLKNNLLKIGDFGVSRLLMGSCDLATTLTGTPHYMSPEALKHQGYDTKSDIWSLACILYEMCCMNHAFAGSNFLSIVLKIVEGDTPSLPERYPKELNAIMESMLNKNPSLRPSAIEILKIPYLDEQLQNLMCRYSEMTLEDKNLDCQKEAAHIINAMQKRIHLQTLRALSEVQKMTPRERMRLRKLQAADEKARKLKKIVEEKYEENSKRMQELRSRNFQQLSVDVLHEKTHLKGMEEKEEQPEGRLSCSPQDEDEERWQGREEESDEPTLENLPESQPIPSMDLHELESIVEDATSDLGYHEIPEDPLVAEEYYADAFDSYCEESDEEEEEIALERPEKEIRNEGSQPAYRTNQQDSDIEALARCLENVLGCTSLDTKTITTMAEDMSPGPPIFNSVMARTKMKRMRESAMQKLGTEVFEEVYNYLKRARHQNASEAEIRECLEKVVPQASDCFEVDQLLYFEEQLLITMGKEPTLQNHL

SMILES	pIC50 (MDA-MB-231 cells)	remaining binding at 10 µM [1]	remaining binding at 10 µM (AMPK-alpha2)	remaining binding at 10 µM (BRK)	remaining binding at 10 µM (BRSK1)	remaining binding at 10 µM (BRSK2)	remaining binding at 10 µM (EGFR(L747-T751del, Sins))	remaining binding at 10 µM (EPHA6)	remaining binding at 10 µM (FLT3(R834Q))	remaining binding at 10 µM (GRK3)	remaining binding at 10 µM (IKK-beta)	remaining binding at 10 µM [2]	remaining binding at 10 µM (JNK1)	remaining binding at 10 µM (JNK2)	remaining binding at 10 µM (LOK)	remaining binding at 10 µM (MEK5)	remaining binding at 10 µM (MKK7)	remaining binding at 10 µM (MST1R)	remaining binding at 10 µM (MYLK)	remaining binding at 10 µM (NEK11)	also measured
COc1cc(N2CCC(N3CCN(C)CC3)CC2)ccc1Nc1ncc2c(n1)N(C)c1sc(C)nc1C(=O)N2 [Compound 3, 6-((2-methoxy-4-(4-(4-methylpiperazin-1-yl)piperidin-1-yl)phenyl)amino)-2,4-dimethyl-4,9-dihydro-10H-pyrimido[5,4-b]thiazolo[5,4-e][1,4]diazepin-10-one]	< 5.00	47%	83%	66%	69%	78%	52%	83%	100%	100%	100%	100%	100%	100%	84%	22%	100%	90%	53%	100%	remaining binding at 10 µM (PAK3): 78%; remaining binding at 10 µM (PIK3CA(E545A)): 84%; remaining binding at 10 µM (PIK3CA(E545K)): 90%; remaining binding at 10 µM (PIK3CA(H1047L)): 66%; remaining binding at 10 µM (PKNB(M. tuberculosis)): 91%; remaining binding at 10 µM (PRKCE): 100%; remaining binding at 10 µM (RET(V804L)): 95%; remaining binding at 10 µM (ROCK1): 100%; remaining binding at 10 µM [3]: 100%; remaining binding at 10 µM (TLK2): 100%; remaining binding at 10 µM (TNK1): 53%; remaining binding at 10 µM (TXK): 73%
COc1cc(N2CCC(N3CCN(C)CC3)CC2)ccc1Nc1ncc2c(n1)N(C)c1sc(C)nc1C(=O)N2C [Compound 5, 6-((2-methoxy-4-(4-(4-methylpiperazin-1-yl)piperidin-1-yl)phenyl)amino)-2,4,9-trimethyl-4,9-dihydro-10H-pyrimido[5,4-b]thiazolo[5,4-e][1,4]diazepin-10-one]	5.12	100%	100%	100%	100%	91%	100%	86%	81%	81%	96%	99%	100%	98%	99%	100%	100%	100%	36%	100%	remaining binding at 10 µM (PAK3): 92%; remaining binding at 10 µM (PIK3CA(E545A)): 100%; remaining binding at 10 µM (PIK3CA(E545K)): 100%; remaining binding at 10 µM (PIK3CA(H1047L)): 80%; remaining binding at 10 µM (PKNB(M. tuberculosis); PKNB(M. tuberculosis), 10000 nM): 98%; remaining binding at 10 µM (PRKCE): 100%; remaining binding at 10 µM (RET(V804L)): 93%; remaining binding at 10 µM (ROCK1): 100%; remaining binding at 10 µM [3]: 91%; remaining binding at 10 µM (TLK2): 100%; remaining binding at 10 µM (TNK1): 10%; remaining binding at 10 µM (TXK): 99%
